Results reported in PubChem BioAssay AID1645848.
Converted amounts (≈) assume the structure as drawn.

Conditions: buffer; pH 7.4; 6.0 h; 150.0 µM

SMILES	solubility kinetic
COc1ccc(-c2ccc3ncc(Nc4cccnc4OC)n3n2)cn1	5.33 µg/mL (≈ 15.3 µM)
COc1ccc(Cn2c(=O)[nH]c3cc(C(=O)NCCCN4CCCCC4)ccc3c2=O)cc1	> 67 µg/mL
O=C(Oc1ccc[nH]c1=O)c1cc([N+](=O)[O-])cc([N+](=O)[O-])c1	> 45 µg/mL
CCCC1=Nc2cc(C(=O)NC3CCCC3)ccc2Sc2ccc(C)cc21	< 1 µg/mL
FC(F)(F)c1ccc(N2CCN(C(=S)Nc3ccccn3)CC2)cc1	8.21 µg/mL (≈ 22.4 µM)
COc1ccc(-c2nc(N3CCOCC3)c3sc(CN(C)c4ncc(C(=O)NO)cn4)cc3n2)cn1	5.56 µg/mL (≈ 10.9 µM)
CC(C)Oc1ccc(C(=O)Nc2ccc3c(c2)CCCN3C(=O)c2cccs2)cc1	< 1 µg/mL
Fc1cc(Nc2nc(-c3ccncc3)nc3ccccc23)ccc1-c1cncnc1	< 1 µg/mL
NC(=O)C1CCN(c2ncc(-c3cccc(F)c3)s2)CC1	17.7 µg/mL (≈ 58.1 µM)
CCOc1cc(CCNC(=O)c2cc3sccc3n2Cc2ccccc2)cc(F)c1OCC	< 1 µg/mL
NC(=O)C1CCN(c2nc(-c3ccc(N)cc3)cs2)CC1	> 45 µg/mL
O=C(Nc1ccc(S(=O)(=O)Nc2nccs2)cc1)c1ccc2ccccc2c1	< 1 µg/mL
O=C(O)CNC(=O)c1c(O)c2ccccc2n(Cc2ccccc2)c1=O	> 52 µg/mL
CCOC(=O)c1ccc(N2C(=O)c3n[nH]c(-c4cccs4)c3C2c2ccc(Cl)cc2Cl)cc1 (configuration not stated)	< 1 µg/mL
CCn1ncc(NC(=O)Cn2ncc3cc(-c4cccc(OC)c4)ccc32)n1	< 1 µg/mL
COc1ccc(Cn2c(CCC(=O)Nc3cc(C)cc(C)c3)nc3cccnc32)cc1	< 1 µg/mL
Cc1ccc(CC(=O)Nc2nc(-c3ccc4c(c3)CCN4C(=O)c3ccccc3C)c(C)s2)cc1C	< 1 µg/mL
COc1ccnc(NC(=S)N2CCN(c3cc(C(F)(F)F)cc(C(F)(F)F)c3)CC2)c1	2.88 µg/mL (≈ 6.21 µM)
COc1cc(NC(=O)c2nc3ccccc3n(C)c2=O)cc(OC)c1OC	7.16 µg/mL (≈ 19.4 µM)
CCOc1ccc(S(=O)(=O)NCc2cccnc2)cc1NC(=O)c1ccccc1F	< 1 µg/mL
COc1cc(=O)n2c(c1C(=O)N(C)Cc1cscn1)CCN(C(=O)c1ccc(C)cc1C)CC2	> 71 µg/mL
NC(=O)c1cnc(N[C@@H]2CCCC[C@@H]2N)nc1Nc1cccc(-n2nccn2)c1	> 39 µg/mL
CN1CCN(Cc2ccc(-c3ccc(C(C)(C)C#N)cc3)nc2)CC1	> 49 µg/mL
O=C(Cc1ccccc1)Nc1ccc(S(=O)(=O)Nc2nccs2)cc1	> 55 µg/mL

SMILES	solubility kinetic
Cc1ccc(S(=O)(=O)Nc2cnccc2C(=O)Nc2nc(-c3cccc(Cl)c3)cs2)cc1	< 1 µg/mL
COc1cccc(CNc2ccc(C(=O)Nc3nccs3)cc2)c1O	< 1 µg/mL
O=[N+]([O-])c1ccc(/C=N/n2c(CO)nc3ccccc32)s1	< 1 µg/mL
Cc1ccc(NC2=C(c3ccc(C(F)(F)F)cc3)C(=O)c3ccccc32)cc1F	< 1 µg/mL
O=C(NCCCNc1nc(Nc2cccc(CN3CCOCC3)c2)ncc1C1CC1)C1CCC1	> 69 µg/mL
CCN(CC)c1ccc(Nc2nc(Cl)ncc2Br)cc1	4.94 µg/mL (≈ 13.9 µM)
Cc1cc(-c2nnc3n2CCCCC3)c(C)n1-c1ccc(C(C)(C)C)cc1	20.9 µg/mL (≈ 57.6 µM)
O=C(NCC1Cn2cccc2CN1Cc1cccnc1)Nc1ccccc1 (configuration not stated)	> 53 µg/mL
CC(=O)Nc1nc(C)c(-c2ccc(Cl)c(S(=O)(=O)NCCO)c2)s1	> 57 µg/mL
COc1ccc(C)cc1Nc1c2c(nc3ccccc13)CCC2	> 45 µg/mL
Cc1cc(C)nc(NC(=S)N2CCN(c3cccc(OC(F)F)c3)CC2)c1	11.6 µg/mL (≈ 29.4 µM)
Cc1noc(C)c1-c1cc2c(cc(C)n2C)c(-c2cnn(C)c2)n1	15.2 µg/mL (≈ 47.2 µM)
COc1ccccc1-c1cc2c(ccn2C)c(C(=O)NCC2CCN(C)C(=O)C2)n1 (configuration not stated)	> 90 µg/mL
COc1oc(-c2cccc3ccccc23)nc1C(=O)O	> 40 µg/mL
O=C(Cc1ccc(Cl)c(Cl)c1)Nc1ccc(S(=O)(=O)Nc2cncnc2)cc1	> 64 µg/mL
Cc1ccc(O)c(-c2cc(-c3ccccc3C)[nH]n2)c1	< 1 µg/mL
Cc1ccc(S(=O)(=O)Nc2cnccc2C(=O)Nc2nc(-c3ccc(C)c(C)c3)cs2)cc1	< 1 µg/mL
CC(C)N(CCCNC(=O)Nc1ccc(C(C)(C)C)cc1)C[C@H]1O[C@@H](n2cc(Br)c3c(N)ncnc32)[C@H](O)[C@@H]1O	73 µg/mL (≈ 118 µM)
Cc1ccc(C(N)=O)cc1Nc1nccc(-c2cn(C(C)C)c3cnccc23)n1	45.2 µg/mL (≈ 117 µM)
O=C1c2ccccc2-n2c1nc1ccccc1c2=O	8.45 µg/mL (≈ 34 µM)
O=C1Nc2ccc(-c3cccc(C(F)(F)F)c3)cc2C(=O)N2CCN(C(=O)COc3ccccc3)C[C@H]12	< 1 µg/mL
Fc1ccccc1CNCc1ccc(-c2ccnc3[nH]ccc23)cc1	13.2 µg/mL (≈ 39.8 µM)
CNc1nc2c(s1)C(c1ccccc1F)CC(=O)N2 (configuration not stated)	13.7 µg/mL (≈ 49.3 µM)
Fc1ccc(Cl)cc1-c1nc(Nc2ccncc2)c2nccnc2n1	1.6 µg/mL (≈ 4.54 µM)

SMILES	solubility kinetic
Cc1cc(C)nc(NC(=S)N2CCN(c3cccc(C(F)(F)F)c3)CC2)c1	0.748 µg/mL (≈ 1.9 µM)
Clc1ccc(C2=Nn3c(nnc3-c3ccncc3)SC2)cc1	1.45 µg/mL (≈ 4.42 µM)
COCCNS(=O)(=O)c1cc(-c2nn3c(C)nnc3c3ccccc23)ccc1C	29 µg/mL (≈ 70.4 µM)
COc1ccccc1-n1cnc2cc(C(=O)N3CCCCC3)ccc21	> 50 µg/mL
O=C(Nc1nc(-c2ccc(F)cc2)cs1)c1ccncc1NS(=O)(=O)c1ccccc1Cl	< 1 µg/mL
c1ccc(CNc2nc(NCc3ccccc3)c3ccccc3n2)cc1	< 1 µg/mL
CC(C)c1ccccc1-c1ncc(F)c(NC(C)(C)c2ccc(-n3ccnn3)cc2)n1	1.14 µg/mL (≈ 2.74 µM)
COc1ccc2[nH]c(S(=O)Cc3ncc(C)c(OC)c3C)nc2n1 (configuration not stated)	> 51 µg/mL
CCOc1ccc(CCNC(=O)c2cc3sccc3n2CCN2CCN(C)CC2)cc1OCC	> 72 µg/mL
COc1ccc(Nc2nnc(-c3ccc(C)c(S(=O)(=O)NCc4nc5ccccc5[nH]4)c3)c3ccccc23)cc1	< 1 µg/mL
CCN1C(=O)c2ccccc2[S@](=O)c2ccc(C(=O)N[C@H](C)c3ccc(Br)cc3)cc21	< 1 µg/mL
Cc1ccc(-c2cc(C(=O)Nc3ccc(C#N)cc3)c3ccccc3n2)cc1C	< 1 µg/mL
COc1ccc(-n2nc(C3CCN([S+](=O)([O-])c4c(C)noc4C)CC3)[nH]c2=O)cc1	< 1 µg/mL
Clc1ccccc1CSc1nc2ncc(Br)cc2[nH]1	< 1 µg/mL
Cc1ccc(S(=O)(=O)N2CCN(C(=O)c3cc4c(s3)CCC4)CC2)cc1	< 1 µg/mL
CCn1nc(C2CCN(C(=O)CCO)CC2)nc1-c1cnc(N)c(-c2nnc(C(C)(C)C)o2)n1	> 69 µg/mL
CCCS(=O)(=O)c1nc(NC2CC2)cc(-c2ccc3c(ccn3C3CC(C)(C)NC(C)(C)C3)c2)n1	< 1 µg/mL
Oc1ccc(-c2nc(C3CC3)nc3c2CCN(CC2CCCCC2)CC3)cc1	11.3 µg/mL (≈ 29.9 µM)
O=C(Nc1ncnc2sc3c(c12)CCC3)c1ccco1	11.5 µg/mL (≈ 40.4 µM)
Cc1cccc(CNc2ccc(S(=O)(=O)Nc3nccs3)cc2)c1O	> 55 µg/mL
CCOc1ccc(CCNC(=O)c2cc3sccc3n2CCN(C)C)cc1OCC	> 63 µg/mL
COc1ccc(-n2nc(C3CCCN(C(=O)c4cccc(OC)c4)C3)[nH]c2=O)cc1 (configuration not stated)	22.4 µg/mL (≈ 54.8 µM)
CN(C)C(=O)c1cccc(-c2csc(N3CCC(C(N)=O)CC3)n2)c1	> 53 µg/mL
Cc1nn2c(c1-c1ccccc1Oc1ccccc1)N(Cc1ccccc1O)CCC2	13.9 µg/mL (≈ 33.8 µM)
